Earlier results on 3 molecules are cited in patent US20130315843A1, “COMPOSITION FOR REDUCTION OF TRPA1 AND TRPV1 SENSATIONS” (priority 2012, published 2013).

For the data set the following is noted: concentration where the cooling effect can be clearly recognized; cited from earlier work.
Regarding `CC(C)[C@@H]1CC[C@@H](C)C[C@@H]1O` [d-neomenthol], the cooling threshold result was “about 25,000 ppb”. With `CC(C)[C@@H]1CC[C@@H](C)C[C@H]1O` [L-menthol], the cooling threshold entry was “about 800 ppb”. As to `CC(C)[C@@H]1CC[C@@H](C)C[C@@H]1O` [1-neomenthol], the cooling threshold entry is given as “about 3,000 ppb”.
